# From patent publication US10053422B2, “Compounds for the treatment of mTOR pathway related diseases” (Pitney Pharmaceuticals Pty Limited, priority 2012, dated 2018)
# Entries after “also recorded” stand apart in the source; their conditions may differ. Read-outs that look alike come from different tables or passages of the source.
# What was measured:
# cancer cell lines = test: SRB cell proliferation assay, range of cancer cell lines (general statements); type: cell-based
# Description: (§1) Cell proliferation was assessed using the sulforhodamine B (SRB) assay. Cells seeded in 96-well plate (2,000-3,000 cell/well) were treated with MPL (0, 1, 5, 10, 25, 50 and 100 μmol/L) for 72 h. Cells were then fixed, washed and stained with 100 μl of 0.4% (w/v) SRB dissolved in 1% acetic acid. Unbound dye was removed by five washes with 1% acetic acid before air drying. Bound SRB was solubilized with 100 μl of 10 mM Tris base (pH 10.5) and the absorbance read at 570 nm. Exactly the same procedure was used to assess MPL-SO2. Both agents were dissolved in ethanol and diluted with media to give the final concentrations required for cell culture assays.
# In brief, MPL and MPL-SO2 were tested in vitro against a wide range of cancer cell-lines with extensively different disease characteristics. For further detailed studies, human ovarian cancer cell lines OVCAR-3 and A2780 were chosen. Additionally, normal human ovarian surface epithelial cells (HOSE) and were cultured in the presence of MPL (0, 5, 10, 25, 50 and 100 μM) for 72 h. Cell viability was assessed using Trypan blue assay (FIG. 9). Similarly, effect of MPL on the growth of normal epithelial, endothelial, embryonic and fetal cells were investigated (FIG. 10) while cell proliferation was assessed using the SRB assay (FIG. 11). Control (vehicle treated) cells were taken to present 100% proliferation and the MPL treated groups are expressed as percentage of control±SEM. Each drug concentration was tested in quadruplicate and each experiment was repeated at least twice. For statistical comparisons, each drug treated group is compared to the control group using Student's t test. To examine concentration dependent drug effect, analysis of variance (ANOVA) was used. P values are: *=<0.05; **<0.01 and ***=<0.001, **** p<0.0001. […] In order to find out if the MPL effect is mediated through the nicotinic acetyl choline receptor and in particular the nACHR7 subtype, cells were pretreated with antagonists and then exposed to MPL (FIG. 12).
# U251 glioma cells = test: Autophagy (vacuoles), U251; type: cell-based
# From the text: Concentration-dependent conversion of LC3-I to LC3-II confirms the increasing phenomenon of autophagy in these cells.
# PET cells (mesothelioma) = test: SRB cell proliferation assay, PET; type: cell-based; settings: for IC50: PET
# Description: as §1
# nicotinic receptors = test: MPL antiproliferative effect after pre-treatment with nicotinic agonists or antagonists; type: cell-based; settings: MPL 5 μM, 72 h; 30 min pre-treatment
# Description: Cells were pre-treated (30 min) with increasing concentrations of nicotine, carbachol or the receptor antagonists, atropine, mecamylamine, tubocurarine, and α-bungarotoxin. MPL (5 μM) was added and left in the cell culture incubator for 72 h. Each drug concentration was tested in quadruplicate and each experiment was repeated twice. Combine values (mean±SEM) are presented as % control.
# In brief, MPL and MPL-SO2 were tested in vitro against a wide range of cancer cell-lines with extensively different disease characteristics. For further detailed studies, human ovarian cancer cell lines OVCAR-3 and A2780 were chosen. Additionally, normal human ovarian surface epithelial cells (HOSE) and were cultured in the presence of MPL (0, 5, 10, 25, 50 and 100 μM) for 72 h. Cell viability was assessed using Trypan blue assay (FIG. 9). Similarly, effect of MPL on the growth of normal epithelial, endothelial, embryonic and fetal cells were investigated (FIG. 10) while cell proliferation was assessed using the SRB assay (FIG. 11). Control (vehicle treated) cells were taken to present 100% proliferation and the MPL treated groups are expressed as percentage of control±SEM. Each drug concentration was tested in quadruplicate and each experiment was repeated at least twice. For statistical comparisons, each drug treated group is compared to the control group using Student's t test. […]
# SKOV-3 cells = test: SRB cell proliferation assay, SKOV-3; type: cell-based; settings: Homo sapiens, SK-OV-3
# Description: as §1
# MDA-MB-231 cells = test: SRB cell proliferation assay, MDA-MB-231; type: cell-based; settings: Homo sapiens
# Description: as §1
# [1] = tested on: cdk2, cdk4, cyclins A, and E; test: Western blot of cell cycle regulatory proteins; type: cell-based; settings: MPL 0, 5, 10, 25 μM
# Description: (§2) Whole-protein extracts were obtained and separated by electrophoresis and immunoblots were probed with the indicated antibodies. Western blot analysis showing the levels of these proteins in each extract was analysed using the relevant antibodies. The image represents the exposed radiographic film scanned. The house-keeping gene (GAPDH) was used to confirm similar protein loading and blot transfer.
# as §2, with “electrophoresis,” for “electrophoresis”
# Protein expression in cells was determined using western blot analysis. After treatment with the indicated concentrations of MPL, cell lysates were prepared and probed with antibodies for cdk2, cdk4, cyclin A, cyclin E, PARP-1 (1:1000 dilutions; Cell Signalling Technology), and p53 (1:200 dilutions; Santa Cruz Biotechnology).
# OVCAR-3 or A2780 cells = test: Colony formation assay; type: cell-based, human
# Description: FIG. 2A, FIG. 2B, and FIG. 2C show the effect of MPL on the colony formation activity of OVCAR-3 cells. Following incubation of cells with MPL (0, 5, 10 and 25 μmol/L) for 72 hours, cells were washed, transferred to agar plates, cultured with their regular growth medium and incubated under standard conditions for 2 weeks. Cells were then fixed with 100% methanol and stained with 1% crystal violet. Colonies (a cluster of cells greater than 50) were counted under a microscope (magnification ×5). The number of colonies counted for different experimental groups is expressed as a percentage of the control.
# Following incubation of cells with MPL (0, 5, 10, 25 μM) for 72 h, cells were washed and then transferred to agar plates, cultured with their regular growth medium and incubated under standard conditions for 2 weeks. Cells were then fixed with 100% methanol and stained with 1% crystal violet. Colonies (cluster of cells greater than 50) were counted under microscope (magnification ×5). Number of colonies counted for different experimental groups is expressed as % of control.
# For colony formation assay, […], such as OVCAR-3 or A2780 cells, were plated in 100 mm Petri dishes and allowed to attach overnight. […] Colonies consisting of more than 50 cells were counted under an inverted microscope. […]
# [2] = tested on: PC-3 prostate cancer cells; test: SRB cell proliferation assay, PC-3; type: cell-based
# Description: as §1
structure (smiles),measurement,setting,value
"C[C@](C#N)(COc1cc(C#N)ccc1C(F)(F)F)NC(=O)c1ccc(SC(F)(F)F)cc1 [MPL, N-[(1S)-1-Cyano-2-(5-cyano-2-trifluoromethyl-phenoxy)-1-methyl-ethyl]-4-trifluoromethylsulfanyl-benzamide]",antiproliferative action on chemo-resistant cell lines,"cancer cell lines; ovarian chemo-resistant, glioma temozolimide resistant, breast cancer tamoxifen resistant cells",sensitive
same,"antiproliferative activity, cancer cell lines versus normal cells",cancer cell lines; results of Table 2,"high antiproliferative activity in cancer cell lines, whereas, normal cells are far less affected"
same,formation of autophagy (vacuoles),U251 glioma cells,concentration-dependent formation of autophagy
same,IC50,"PET cells (mesothelioma); mesothelioma (Table 2), read-out: IC50 in suppressing proliferation",26 µM
same,IC50,"PET cells (mesothelioma); mesothelioma, 72 h, SRB assay (Table 1), read-out: IC50",26.3 µM
same,replication of PET cells,PET cells (mesothelioma); highly resistant to chemotherapy,profoundly suppressed
same,MPL-induced inhibition after pre-treatment with nicotinic agonists or antagonists,nicotinic receptors,neither positively nor negatively affected
same,IC50,"SKOV-3 cells; SKOV-3, ovarian cancer (Table 2), read-out: IC50 in suppressing proliferation",31.2 ± 0.76 µM
same,IC50,"SKOV-3 cells; SKOV-3, ovarian cancer, 72 h, SRB assay (Table 1), read-out: IC50",29.3 µM
same,IC50,"MDA-MB-231 cells; MDA-MB-231, breast cancer (Table 2), read-out: IC50 in suppressing proliferation",23.8 ± 0.2 µM
same,IC50,"MDA-MB-231 cells; MDA-MB-231, breast cancer, 72 h, SRB assay (Table 1), read-out: IC50",24 µM
same,"expression of cell cycle regulatory proteins cdk2, cdk4, cyclins A and E",[1],"lower levels of cdk2, cdk4, cyclins A, and E"
same,colony formation,"OVCAR-3 or A2780 cells; 72 h exposure (0, 5, 10, 25 μM), then 2 weeks drug free",profoundly hinders colony formation; also recorded: concentration-dependent inhibition of colony formation
same,clonogenic ability at higher concentrations,"OVCAR-3 or A2780 cells; higher concentrations of MPL, 72 h exposure",almost complete loss of clonogenic ability
same,IC50,"[2]; PC-3, prostate cancer (Table 2), read-out: IC50 in suppressing proliferation",21 µM
same,IC50,"[2]; PC-3, prostate cancer, 72 h, SRB assay (Table 1), read-out: IC50",21.6 µM
same,effect on PC-3 cells,"[2]; chemo-resistant, androgen insensitive PC-3",very effective
